From US20230025807A1 (priority 2019, published 2023) come the findings set out here.

Each structure is given as a SMILES string. Where a name gives a salt, the structure may show the parent alone. Some results are limits rather than exact numbers.

The first experiment deals with T1, Human CD38 (Homo sapiens, UniProt P28907).
T1 construct: purchased BPS Bioscience 79287
T1 sequence (P28907 1-300): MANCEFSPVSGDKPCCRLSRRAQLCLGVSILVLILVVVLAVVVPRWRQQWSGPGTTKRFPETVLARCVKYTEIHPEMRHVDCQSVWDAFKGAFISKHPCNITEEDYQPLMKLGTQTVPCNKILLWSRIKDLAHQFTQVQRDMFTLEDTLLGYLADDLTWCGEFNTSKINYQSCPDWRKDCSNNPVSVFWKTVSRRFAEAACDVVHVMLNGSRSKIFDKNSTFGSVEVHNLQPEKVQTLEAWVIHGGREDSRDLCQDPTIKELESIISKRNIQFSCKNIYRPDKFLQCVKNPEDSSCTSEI
Description: biochemical.
Conditions: not given
The method, then:
CD38 hydrolase buffer (4×) was thawed on ice and 1×CD38 hydrolase buffer was prepared by diluting 4×CD38 hydrolase buffer with water. CD38 hydrolase enzyme was diluted to […] with 1×CD38 hydrolase buffer (10 ng/well). Master mix was prepared by mixing equal volumes of water and CD38 hydrolase buffer (4×) and 10 μl of the mix was added to all the wells. Following master mix addition, 10 μl of the inhibitors and 20 μl of CD38 hydrolase enzyme were added to the wells. For wells designated blank, 10 μl and 20 μl of 1×CD38 hydrolase buffer was added respectively in place of CD38 enzyme and inhibitors. The plate was covered and incubated 30 min at room temperature with slow shaking at 400 rpm. After 30 min incubation, the plate was removed and 10 μl of diluted ε-NAD substrate was added to all the wells. The plate is incubated for 10 min, spun at 1200 rpm for 30 secs to remove bubbles and read in Tecan Spark using a fluorometer setting of excitation 300 nm and emission 410 nm. The reading for the blank was subtracted from all the values. IC50 for the test compounds were determined by using Graphpad prism software v7.0.
What is called IC50 is the concentration at which inhibition is half-maximal. Turning to `COCCO[C@H]1CC[C@H](NC(=O)c2cc(-c3cncs3)cc3[nH]ccc23)C1` (racemic) [Example 34, N-(Trans-3-(2-methoxyethoxy)cyclopentyl)-6-(thiazol-5-yl)-1H-indole-4-carboxamide], the IC50 is 265 nM.
Still for that read-out and setting: the same measure for `COCCO[C@H]1CC[C@H](NC(=O)c2cc(-n3cccn3)cc3cc[nH]c23)CC1` [Example 2, N-((1r,4r)-4-(2-methoxyethoxy)cyclohexyl)-5-(1H-pyrazol-1-yl)-1H-indole-7-carboxamide]: > 100000 nM.
The same measure, in the same setting: as for `COCCO[C@H]1CC[C@H](NC(=O)c2cc(-c3ncc[nH]3)cc3cc[nH]c23)CC1` [Example 6, 5-(1H-imidazol-2-yl)-N-((1r,4r)-4-(2-methoxyethoxy)cyclohexyl)-1H-indole-7-carboxamide], the figure is > 100000 nM; as for `COCCO[C@H]1CC[C@H](NC(=O)c2cc(-n3ccnc3)cc3c(C(=O)O)c[nH]c23)CC1` [Example 11, 5-(1H-imidazol-1-yl)-7-(((1r,4r)-4-(2-methoxyethoxy)cyclohexyl)carbamoyl)-1H-indole-3-carboxylic acid], 580 nM; as for `COCCO[C@H]1CC[C@H](NC(=O)c2cc(-n3ccnc3)cc3c(C=O)c[nH]c23)CC1` [Example 15, 3-formyl-5-(1H-imidazol-1-yl)-N-((1r,4r)-4-(2-methoxyethoxy)cyclohexyl)-1H-indole-7-carboxamide], 18000 nM.
As for `COCCO[C@H]1CC[C@H](NC(=O)c2cc(-n3ccnc3)cc3c(CN(C)C)c[nH]c23)CC1` [Example 16, 3-((dimethylamino)methyl)-5-(1H-imidazol-1-yl)-N-((1r,4r)-4-(2-methoxyethoxy)cyclohexyl)-1H-indole-7-carboxamide], the midpoint of inhibition, the IC50, lay at 800 nM.
For the compound `COCCO[C@H]1CC[C@H](NC(=O)c2cc(-n3ccnc3)cc3c(CN)c[nH]c23)CC1` [Example 17, 3-(aminomethyl)-5-(1H-imidazol-1-yl)-N-((1r,4r)-4-(2-methoxyethoxy)cyclohexyl)-1H-indole-7-carboxamide], inhibition was half-maximal at 890 nM (IC50).
The same measure, in the same setting: the same measure for `COCCO[C@H]1CC[C@H](NC(=O)c2cc(-c3cncs3)cc3c(C#N)c[nH]c23)CC1` [Example 20, 3-cyano-N-((1r,4r)-4-(2-methoxyethoxy)cyclohexyl)-5-(thiazol-5-yl)-1H-indole-7-carboxamide]: 19 nM.
The compound `COCCO[C@H]1CC[C@H](NC(=O)c2cc(-n3ccnc3)cc3c(I)c[nH]c23)CC1` [Example 22, 5-(1H-imidazol-1-yl)-3-iodo-N-((1r,4r)-4-(2-methoxyethoxy)cyclohexyl)-1H-indole-7-carboxamide] came in with an IC50 of 169 nM.
Take `O=C(NC1CCS(=O)(=O)CC1)c1cc(-c2cncs2)cc2[nH]ccc12` [Example 24, N-(1,1-dioxidotetrahydro-2H-thiopyran-4-yl)-6-(thiazol-5-yl)-1H-indole-4-carboxamide]: the midpoint of inhibition, the IC50, lay at 198 nM.
On the same count and under the same terms, as for `O=C(NCc1c(F)cccc1C(F)(F)F)c1cc(-c2cncs2)cc2[nH]ccc12` [Example 25, N-(2-fluoro-6-(trifluoromethyl)benzyl)-6-(thiazol-5-yl)-1H-indole-4-carboxamide], the figure is 78 nM; as for `CS(=O)(=O)CCNC(=O)c1cc(-c2cncs2)cc2[nH]ccc12` [Example 26, N-(2-(methylsulfonyl)ethyl)-6-(thiazol-5-yl)-1H-indole-4-carboxamide], 1000 nM.
`O=C(NCC1CCOCC1)c1cc(-c2cncs2)cc2[nH]ccc12` [Example 27, N-((tetrahydro-2H-pyran-4-yl)methyl)-6-(thiazol-5-yl)-1H-indole-4-carboxamide]: the concentration for half-maximal inhibition (IC50) was determined as 3700 nM.
`O=C(NC12CC3CC(CC(O)(C3)C1)C2)c1cc(-c2cncs2)cc2[nH]ccc12` [Example 28, N-((1r,3s,5R,7S)-3-hydroxyadamantan-1-yl)-6-(thiazol-5-yl)-1H-indole-4-carboxamide] showed an IC50 of 523 nM.
Same read-out and setting: as for `CC(C)(O)[C@H]1CC[C@H](NC(=O)c2cc(-c3cncs3)cc3[nH]ccc23)CC1` [Example 29, N-((1r,4r)-4-(2-hydroxypropan-2-yl)cyclohexyl)-6-(thiazol-5-yl)-1H-indole-4-carboxamide], the figure is 123 nM.
Same read-out and setting: as for `O=C(N[C@@H]1CC[C@@H](O)C1)c1cc(-c2cncs2)cc2[nH]ccc12` [Example 31, N-((1R,3R)-3-hydroxycyclopentyl)-6-(thiazol-5-yl)-1H-indole-4-carboxamide], the figure is 392 nM; as for `COCCO[C@H]1C[C@@H](NC(=O)c2cc(-c3cncs3)cc3[nH]ccc23)C1` [Example 32, N-((1s,3s)-3-(2-methoxyethoxy)cyclobutyl)-6-(thiazol-5-yl)-1H-indole-4-carboxamide], 3300 nM.
For `O=C(NCc1ccc(N2CCOCC2)cc1)c1cc(-c2cncs2)cc2[nH]ccc12` [Example 33, N-(4-morpholinobenzyl)-6-(thiazol-5-yl)-1H-indole-4-carboxamide], the IC50 was > 10000 nM.
The same measure, in the same setting: the same measure for `O=C(NC1CCNCC1)c1cc(-c2cncs2)cc2[nH]ccc12` [Example 35, N-(piperidin-4-yl)-6-(thiazol-5-yl)-1H-indole-4-carboxamide hydrochloride]: 7800 nM.
Take `CC1(O)CC(NC(=O)c2cc(-c3cncs3)cc3[nH]ccc23)C1` (stereo not shown) [Example 36, N-(3-hydroxy-3-methylcyclobutyl)-6-(thiazol-5-yl)-1H-indole-4-carboxamide]: inhibition was half-maximal at 1500 nM (IC50).
Still for that read-out and setting: the same measure for `CC(NC(=O)c1cc(-c2cncs2)cc2[nH]ccc12)c1ccccc1F` (stereo not shown) [Example 39, N-(1-(2-fluorophenyl)ethyl)-6-(thiazol-5-yl)-1H-indole-4-carboxamide]: 197 nM.
Same read-out and setting: as for `C[C@H]1CCCC[C@H]1NC(=O)c1cc(-c2cncs2)cc2[nH]ccc12` [Example 40, N-((1R,2S)-2-methylcyclohexyl)-6-(thiazol-5-yl)-1H-indole-4-carboxamide], the figure is 78 nM; as for `COCC(C)(C)NC(=O)c1cc(-c2cncs2)cc2[nH]ccc12` [Example 42, N-(1-methoxy-2-methylpropan-2-yl)-6-(thiazol-5-yl)-1H-indole-4-carboxamide], 3600 nM.
For the compound `CC(C)(O)CNC(=O)c1cc(-c2cncs2)cc2[nH]ccc12` [Example 43, N-(2-hydroxy-2-methylpropyl)-6-(thiazol-5-yl)-1H-indole-4-carboxamide], the IC50 was determined as 5100 nM.
The same measure, in the same setting: as for `O=C(NC12CC3CC(CC(C3)C1)C2)c1cc(-c2cncs2)cc2[nH]ccc12` [Example 44, N-(adamantan-1-yl)-6-(thiazol-5-yl)-1H-indole-4-carboxamide], the figure is 393 nM.
With `O=C(NC1CCOCC1)c1cc(-c2cncs2)cc2[nH]ccc12` [Example 45, N-(tetrahydro-2H-pyran-4-yl)-6-(thiazol-5-yl)-1H-indole-4-carboxamide], the IC50 was 664 nM.
As for `O=C(N[C@H]1C[C@H](O)C1)c1cc(-c2cncs2)cc2[nH]ccc12` [Example 46, N-((1r,3r)-3-hydroxycyclobutyl)-6-(thiazol-5-yl)-1H-indole-4-carboxamide], the concentration for half-maximal inhibition (IC50) came out at 678 nM.
For the compound `O=C(NC1CCCCC1)c1cc(-c2cncs2)cc2[nH]ccc12` [Example 47, N-cyclohexyl-6-(thiazol-5-yl)-1H-indole-4-carboxamide], the IC50 amounted to 138 nM.
Same read-out and setting: as for `COCCO[C@H]1CC[C@H](NC(=O)c2cc(-c3cncs3)cc3c2ccn3CC2COC2)CC1` [Example 50, N-((1r,4r)-4-(2-methoxyethoxy)cyclohexyl)-1-(oxetan-3-ylmethyl)-6-(thiazol-5-yl)-1H-indole-4-carboxamide], the figure is 503 nM.
As to `COCCO[C@H]1CC[C@H](NC(=O)c2cc(-c3cncs3)cc3c2ccn3C(C)C)CC1` [Example 52, 1-isopropyl-N-((1r,4r)-4-(2-methoxyethoxy)cyclohexyl)-6-(thiazol-5-yl)-1H-indole-4-carboxamide], the IC50 stood at 1400 nM.
Still for that read-out and setting: the same measure for `COCCO[C@H]1CC[C@H](NC(=O)c2cc(-c3cncs3)cc3c2ccn3CC(C)(C)O)CC1` [Example 53, 1-(2-hydroxy-2-methylpropyl)-N-((1r,4r)-4-(2-methoxyethoxy)cyclohexyl)-6-(thiazol-5-yl)-1H-indole-4-carboxamide]: 3000 nM.

The same experiment, now with this note: 30 min pre-incubation at room temperature, ε-NAD substrate 10 min, excitation 300 nm / emission 410 nm; read-out: hCD38 IC50.
With `COCCO[C@H]1C[C@H](NC(=O)c2cc(-c3cncs3)cc3[nH]ccc23)C1` [Example 30, N-((1r,3r)-3-(2-methoxyethoxy)cyclobutyl)-6-(thiazol-5-yl)-1H-indole-4-carboxamide], the IC50 amounted to 761 nM.
On the same count and under the same terms, the same measure for `COCCCO[C@H]1CC[C@H](NC(=O)c2cc(-c3cncs3)cc3[nH]ccc23)CC1` [Example 37, N-((1r,4r)-4-(3-methoxypropoxy)cyclohexyl)-6-(thiazol-5-yl)-1H-indole-4-carboxamide]: 63 nM; for `O=C(N[C@H]1CC[C@H](O)CC1)c1cc(-c2cncs2)cc2[nH]ccc12` [Example 41, N-((1r,4r)-4-hydroxycyclohexyl)-6-(thiazol-5-yl)-1H-indole-4-carboxamide]: 37 nM.
